Key:
Assay in all cases: Kinase panel study
Assay type in all cases: biochemical
Settings in all cases: read-out: Percentage of inhibition; for inhibition at 1 µM: 1000nM; for inhibition at 10 µM: 10000nM
SRC = molecular target: T1, SRC (Homo sapiens, UniProt P12931)
T1 construct: purchased Thermo Fisher Scientific
Procedure, shortened: (§1)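 Compounds were tested in vitro against the kinase panel by a service lab. Assays followed standard ZLyte or Adapta protocols. Activity was recorded as % inhibition at 10 µM or 1 µM, with IC50 values where determined.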

AMPK (A2/B2/G3) = molecular target: T2, AMPK (A2/B2/G3) (Homo sapiens, UniProt P54646)
T2 construct: purchased Thermo Fisher Scientific
Procedure, shortened: as §1

PAK3 = molecular target: T3, PAK3 (Homo sapiens, UniProt O75914)
T3 construct: purchased Thermo Fisher Scientific
Procedure, shortened: as §1

RET S891A = molecular target: T4, RET S891A (Homo sapiens, UniProt P07949, S891A)
T4 construct: purchased Thermo Fisher Scientific
T4 sequence (P07949 29-1114 S891A): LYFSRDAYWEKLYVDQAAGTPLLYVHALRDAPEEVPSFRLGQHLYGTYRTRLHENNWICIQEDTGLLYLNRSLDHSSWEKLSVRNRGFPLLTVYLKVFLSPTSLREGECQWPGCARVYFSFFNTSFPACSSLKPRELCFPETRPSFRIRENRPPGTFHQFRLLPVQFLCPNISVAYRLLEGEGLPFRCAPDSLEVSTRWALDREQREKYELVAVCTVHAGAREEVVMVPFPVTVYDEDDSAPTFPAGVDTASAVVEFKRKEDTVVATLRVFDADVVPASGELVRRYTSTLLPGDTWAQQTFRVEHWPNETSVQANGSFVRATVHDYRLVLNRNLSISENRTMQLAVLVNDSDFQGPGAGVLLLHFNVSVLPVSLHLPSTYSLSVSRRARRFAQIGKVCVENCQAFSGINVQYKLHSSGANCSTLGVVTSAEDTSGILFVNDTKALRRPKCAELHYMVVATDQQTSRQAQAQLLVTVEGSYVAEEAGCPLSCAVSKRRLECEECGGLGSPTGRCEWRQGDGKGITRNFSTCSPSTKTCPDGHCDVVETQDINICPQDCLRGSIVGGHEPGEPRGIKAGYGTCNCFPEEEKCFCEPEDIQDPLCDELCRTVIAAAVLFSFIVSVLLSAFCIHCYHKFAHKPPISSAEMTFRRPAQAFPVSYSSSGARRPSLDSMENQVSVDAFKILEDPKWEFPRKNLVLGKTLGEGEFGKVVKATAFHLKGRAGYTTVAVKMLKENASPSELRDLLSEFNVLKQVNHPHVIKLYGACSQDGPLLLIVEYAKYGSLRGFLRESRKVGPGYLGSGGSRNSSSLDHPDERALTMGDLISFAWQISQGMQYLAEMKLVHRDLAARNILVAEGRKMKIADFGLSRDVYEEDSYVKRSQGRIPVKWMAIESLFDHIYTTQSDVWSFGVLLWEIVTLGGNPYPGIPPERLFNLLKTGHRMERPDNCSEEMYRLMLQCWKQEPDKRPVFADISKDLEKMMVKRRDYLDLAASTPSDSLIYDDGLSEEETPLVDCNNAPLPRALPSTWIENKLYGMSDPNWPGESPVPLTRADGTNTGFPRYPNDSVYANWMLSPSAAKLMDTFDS
Procedure, shortened: as §1

MET (cMet) Y1235D = molecular target: T5, MET (cMet) Y1235D (Homo sapiens, UniProt P08581, Y1235D)
T5 construct: purchased Thermo Fisher Scientific
T5 sequence (P08581 25-1390 Y1235D): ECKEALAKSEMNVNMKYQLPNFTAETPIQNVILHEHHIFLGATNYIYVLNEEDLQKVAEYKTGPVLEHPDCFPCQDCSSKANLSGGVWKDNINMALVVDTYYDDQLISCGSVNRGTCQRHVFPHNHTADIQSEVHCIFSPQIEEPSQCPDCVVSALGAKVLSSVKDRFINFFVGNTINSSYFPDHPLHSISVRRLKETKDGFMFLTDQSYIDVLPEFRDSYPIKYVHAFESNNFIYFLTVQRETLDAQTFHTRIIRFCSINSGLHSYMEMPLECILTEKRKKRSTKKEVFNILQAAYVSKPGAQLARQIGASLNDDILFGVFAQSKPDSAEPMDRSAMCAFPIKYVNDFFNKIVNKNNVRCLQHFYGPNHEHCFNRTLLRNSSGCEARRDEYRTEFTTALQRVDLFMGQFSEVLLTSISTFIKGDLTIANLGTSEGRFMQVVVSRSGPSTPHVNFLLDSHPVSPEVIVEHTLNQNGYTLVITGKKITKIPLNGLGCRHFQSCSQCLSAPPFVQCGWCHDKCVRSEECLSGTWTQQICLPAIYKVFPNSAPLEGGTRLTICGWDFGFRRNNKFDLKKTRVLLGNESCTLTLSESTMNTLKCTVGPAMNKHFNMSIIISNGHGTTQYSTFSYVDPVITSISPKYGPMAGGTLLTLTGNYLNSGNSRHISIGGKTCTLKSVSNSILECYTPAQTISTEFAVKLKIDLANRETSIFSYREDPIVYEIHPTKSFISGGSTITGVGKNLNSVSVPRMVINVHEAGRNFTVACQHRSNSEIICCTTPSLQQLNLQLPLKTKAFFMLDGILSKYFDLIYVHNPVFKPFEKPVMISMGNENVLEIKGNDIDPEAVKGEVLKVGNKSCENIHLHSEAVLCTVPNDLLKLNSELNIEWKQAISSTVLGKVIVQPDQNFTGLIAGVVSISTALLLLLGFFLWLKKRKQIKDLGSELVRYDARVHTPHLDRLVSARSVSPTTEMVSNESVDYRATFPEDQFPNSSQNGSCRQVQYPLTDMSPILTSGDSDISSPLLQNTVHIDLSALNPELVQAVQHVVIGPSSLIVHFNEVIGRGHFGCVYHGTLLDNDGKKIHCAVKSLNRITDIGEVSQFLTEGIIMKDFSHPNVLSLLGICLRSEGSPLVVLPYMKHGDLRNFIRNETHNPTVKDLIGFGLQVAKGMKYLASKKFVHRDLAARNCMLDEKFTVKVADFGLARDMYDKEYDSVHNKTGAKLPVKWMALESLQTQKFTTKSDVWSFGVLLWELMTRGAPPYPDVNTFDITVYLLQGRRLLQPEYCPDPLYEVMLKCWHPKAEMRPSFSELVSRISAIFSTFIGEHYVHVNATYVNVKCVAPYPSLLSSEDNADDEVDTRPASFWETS
Procedure, shortened: as §1

PAK1 = molecular target: T6, PAK1 (Homo sapiens, UniProt Q13153)
T6 construct: purchased Thermo Fisher Scientific
Procedure, shortened: as §1

EEF2K = molecular target: T7, EEF2K (Homo sapiens, UniProt O00418)
T7 construct: purchased Thermo Fisher Scientific
Procedure, shortened: as §1

PDGFRA D842V = molecular target: T8, PDGFRA D842V (Homo sapiens, UniProt P16234, D842V)
T8 construct: purchased Thermo Fisher Scientific
T8 sequence (P16234 24-1089 D842V): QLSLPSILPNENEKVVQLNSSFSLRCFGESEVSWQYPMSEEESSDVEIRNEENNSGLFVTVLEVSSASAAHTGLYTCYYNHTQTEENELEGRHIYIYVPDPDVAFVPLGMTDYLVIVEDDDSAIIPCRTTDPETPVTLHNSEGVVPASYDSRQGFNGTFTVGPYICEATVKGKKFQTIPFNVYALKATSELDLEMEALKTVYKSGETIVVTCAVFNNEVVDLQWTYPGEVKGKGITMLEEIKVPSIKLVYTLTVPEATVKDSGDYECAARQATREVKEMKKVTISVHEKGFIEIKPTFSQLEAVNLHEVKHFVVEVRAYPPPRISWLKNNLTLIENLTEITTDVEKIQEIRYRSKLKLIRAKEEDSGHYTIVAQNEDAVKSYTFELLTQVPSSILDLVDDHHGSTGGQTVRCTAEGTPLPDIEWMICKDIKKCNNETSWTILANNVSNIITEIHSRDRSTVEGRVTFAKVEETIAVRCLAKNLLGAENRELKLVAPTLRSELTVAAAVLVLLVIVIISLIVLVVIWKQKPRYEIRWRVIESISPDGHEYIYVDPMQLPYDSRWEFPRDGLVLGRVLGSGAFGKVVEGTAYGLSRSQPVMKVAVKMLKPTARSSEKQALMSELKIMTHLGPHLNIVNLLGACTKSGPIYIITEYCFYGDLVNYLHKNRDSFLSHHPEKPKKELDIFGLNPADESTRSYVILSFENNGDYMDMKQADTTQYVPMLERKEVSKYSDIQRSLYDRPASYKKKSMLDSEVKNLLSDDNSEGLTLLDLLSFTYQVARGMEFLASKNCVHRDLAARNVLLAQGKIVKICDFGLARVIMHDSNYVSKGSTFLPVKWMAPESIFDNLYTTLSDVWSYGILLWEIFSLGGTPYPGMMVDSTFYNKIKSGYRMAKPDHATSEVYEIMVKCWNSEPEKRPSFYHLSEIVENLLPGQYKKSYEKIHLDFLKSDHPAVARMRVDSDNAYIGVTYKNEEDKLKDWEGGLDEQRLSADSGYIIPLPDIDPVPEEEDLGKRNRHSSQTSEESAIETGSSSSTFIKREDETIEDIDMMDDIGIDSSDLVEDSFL
Procedure, shortened: as §1

ZAP70 = molecular target: T9, ZAP70 (Homo sapiens, UniProt P43403)
T9 construct: purchased Thermo Fisher Scientific
T9 sequence (P43403 1-619): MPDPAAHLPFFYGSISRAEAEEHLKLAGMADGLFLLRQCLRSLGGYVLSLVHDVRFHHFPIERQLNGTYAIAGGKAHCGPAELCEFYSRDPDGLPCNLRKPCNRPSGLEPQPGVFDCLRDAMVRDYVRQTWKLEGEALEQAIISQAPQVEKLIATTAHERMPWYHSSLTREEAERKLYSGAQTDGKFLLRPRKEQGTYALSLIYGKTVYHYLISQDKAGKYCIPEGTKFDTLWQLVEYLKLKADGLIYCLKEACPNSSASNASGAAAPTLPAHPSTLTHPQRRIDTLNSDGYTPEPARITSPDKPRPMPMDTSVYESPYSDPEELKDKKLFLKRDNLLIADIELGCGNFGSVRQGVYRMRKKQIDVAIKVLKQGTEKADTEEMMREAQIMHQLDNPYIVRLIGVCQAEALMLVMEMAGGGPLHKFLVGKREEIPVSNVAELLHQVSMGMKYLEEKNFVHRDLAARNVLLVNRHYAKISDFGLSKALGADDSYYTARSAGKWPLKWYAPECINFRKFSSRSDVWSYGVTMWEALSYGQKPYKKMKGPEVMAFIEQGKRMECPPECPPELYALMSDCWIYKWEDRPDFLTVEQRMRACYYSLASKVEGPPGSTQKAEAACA
Procedure, shortened: as §1

IKBKE (IKK epsilon) = molecular target: T10, IKBKE (IKK epsilon) (Homo sapiens, UniProt Q14164)
T10 construct: purchased Thermo Fisher Scientific
T10 sequence (Q14164 1-716): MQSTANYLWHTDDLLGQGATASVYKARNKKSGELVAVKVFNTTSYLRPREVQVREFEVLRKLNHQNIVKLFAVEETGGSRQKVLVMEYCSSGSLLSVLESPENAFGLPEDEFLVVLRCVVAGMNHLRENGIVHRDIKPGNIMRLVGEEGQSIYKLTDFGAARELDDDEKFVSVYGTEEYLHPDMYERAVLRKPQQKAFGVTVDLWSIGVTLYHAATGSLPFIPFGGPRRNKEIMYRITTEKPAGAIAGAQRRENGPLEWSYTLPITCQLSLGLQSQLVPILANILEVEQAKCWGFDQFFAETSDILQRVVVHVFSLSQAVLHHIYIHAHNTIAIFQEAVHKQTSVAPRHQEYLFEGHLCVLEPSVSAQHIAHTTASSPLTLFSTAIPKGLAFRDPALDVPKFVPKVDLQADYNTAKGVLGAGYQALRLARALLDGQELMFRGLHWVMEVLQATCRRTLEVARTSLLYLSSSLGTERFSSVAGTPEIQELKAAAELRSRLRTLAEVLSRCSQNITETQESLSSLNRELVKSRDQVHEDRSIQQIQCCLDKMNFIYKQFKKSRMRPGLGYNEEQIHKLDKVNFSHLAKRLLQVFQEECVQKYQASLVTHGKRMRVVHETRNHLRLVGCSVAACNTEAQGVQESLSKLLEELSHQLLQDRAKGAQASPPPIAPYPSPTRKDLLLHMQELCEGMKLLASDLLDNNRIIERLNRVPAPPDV
Procedure, shortened: as §1

RPS6KA6 (RSK4) = molecular target: T11, RPS6KA6 (RSK4) (Homo sapiens, UniProt Q9UK32)
T11 construct: purchased Thermo Fisher Scientific
T11 sequence (Q9UK32 whole entry): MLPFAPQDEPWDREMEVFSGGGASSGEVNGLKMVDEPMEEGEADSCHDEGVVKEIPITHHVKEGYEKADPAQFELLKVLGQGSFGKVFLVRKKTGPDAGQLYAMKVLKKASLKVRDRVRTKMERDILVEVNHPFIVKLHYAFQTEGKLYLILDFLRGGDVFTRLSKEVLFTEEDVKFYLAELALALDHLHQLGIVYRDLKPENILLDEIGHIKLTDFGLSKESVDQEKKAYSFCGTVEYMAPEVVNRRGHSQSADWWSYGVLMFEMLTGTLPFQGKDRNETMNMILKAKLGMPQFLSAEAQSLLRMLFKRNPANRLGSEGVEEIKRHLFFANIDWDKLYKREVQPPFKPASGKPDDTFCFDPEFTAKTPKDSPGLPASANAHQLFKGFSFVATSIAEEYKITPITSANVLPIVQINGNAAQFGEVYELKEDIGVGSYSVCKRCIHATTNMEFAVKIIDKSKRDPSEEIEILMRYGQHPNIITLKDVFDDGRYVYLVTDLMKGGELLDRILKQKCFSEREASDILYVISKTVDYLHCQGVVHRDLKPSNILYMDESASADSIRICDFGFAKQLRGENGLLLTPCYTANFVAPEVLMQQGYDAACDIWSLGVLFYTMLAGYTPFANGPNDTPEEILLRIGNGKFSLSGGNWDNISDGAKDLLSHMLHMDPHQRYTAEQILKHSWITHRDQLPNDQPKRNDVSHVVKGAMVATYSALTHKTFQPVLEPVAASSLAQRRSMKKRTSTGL
Procedure, shortened: as §1

FYN = molecular target: T12, FYN (Homo sapiens, UniProt P06241)
T12 construct: purchased Thermo Fisher Scientific
T12 sequence (P06241 whole entry): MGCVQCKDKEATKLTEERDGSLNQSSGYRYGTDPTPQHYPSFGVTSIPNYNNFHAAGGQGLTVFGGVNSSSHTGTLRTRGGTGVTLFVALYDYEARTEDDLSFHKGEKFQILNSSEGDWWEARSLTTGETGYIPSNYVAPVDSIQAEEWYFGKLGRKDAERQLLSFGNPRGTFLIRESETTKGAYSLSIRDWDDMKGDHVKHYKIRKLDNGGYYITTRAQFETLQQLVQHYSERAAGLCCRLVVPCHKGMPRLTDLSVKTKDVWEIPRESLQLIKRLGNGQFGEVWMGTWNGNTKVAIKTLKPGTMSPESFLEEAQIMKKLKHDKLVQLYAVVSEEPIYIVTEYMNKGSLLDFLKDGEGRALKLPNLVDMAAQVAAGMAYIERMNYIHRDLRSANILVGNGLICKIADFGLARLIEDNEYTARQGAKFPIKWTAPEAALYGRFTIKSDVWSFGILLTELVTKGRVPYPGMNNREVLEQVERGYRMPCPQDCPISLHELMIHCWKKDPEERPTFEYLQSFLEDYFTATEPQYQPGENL
Procedure, shortened: as §1

COc1ccc2c(c1OC)c(=O)n1c3ccc(O)cc3c3ccnc2c31 [MW01, 5-Hydroxy-10,11-dimethoxy-9H-benzo[c]indolo[3,2,1-ij][1,5]naphthyridin-9-one]
inhibition at 1 µM (SRC): 0%
inhibition at 10 µM (SRC): 16%
inhibition at 1 µM (AMPK (A2/B2/G3)): 8%
inhibition at 10 µM (AMPK (A2/B2/G3)): 18%
inhibition at 1 µM (PAK3): 10%
inhibition at 10 µM (PAK3): 15%
inhibition at 1 µM (RET S891A): -3%
inhibition at 10 µM (RET S891A): 30%
inhibition at 1 µM (MET (cMet) Y1235D): -2%
inhibition at 10 µM (MET (cMet) Y1235D): 4%
inhibition at 1 µM (PAK1): 10%
inhibition at 10 µM (PAK1): 22%
inhibition at 1 µM (EEF2K): 11%
inhibition at 10 µM (EEF2K): 37%
inhibition at 1 µM (PDGFRA D842V): 3%
inhibition at 10 µM (PDGFRA D842V): 35%
inhibition at 1 µM (ZAP70): 12%
inhibition at 10 µM (ZAP70): 16%
inhibition at 1 µM (IKBKE (IKK epsilon)): 11%
inhibition at 10 µM (IKBKE (IKK epsilon)): 17%
inhibition at 1 µM (RPS6KA6 (RSK4)): 5%
inhibition at 10 µM (RPS6KA6 (RSK4)): 17%
inhibition at 1 µM (FYN): 3%
inhibition at 10 µM (FYN): 15%

COc1ccc2cc3c(N)nn(C(=O)c4cccc(N(C)C)c4)c3nc2c1 [MW05, (3-Amino-7-methoxypyrazolo[3,4-b]quinolin-1-yl)-[3-(dimethylamino)phenyl]methanone]
inhibition at 1 µM (SRC): 6%
inhibition at 10 µM (SRC): 3%
inhibition at 1 µM (AMPK (A2/B2/G3)): 4%
inhibition at 10 µM (AMPK (A2/B2/G3)): -4%
inhibition at 1 µM (PAK3): 26%
inhibition at 10 µM (PAK3): 15%
inhibition at 1 µM (RET S891A): -15%
inhibition at 10 µM (RET S891A): -18%
inhibition at 1 µM (MET (cMet) Y1235D): 1%
inhibition at 10 µM (MET (cMet) Y1235D): -44%
inhibition at 1 µM (PAK1): 16%
inhibition at 10 µM (PAK1): 2%
inhibition at 1 µM (EEF2K): 3%
inhibition at 10 µM (EEF2K): 5%
inhibition at 1 µM (PDGFRA D842V): -4%
inhibition at 10 µM (PDGFRA D842V): -2%
inhibition at 1 µM (ZAP70): 15%
inhibition at 10 µM (ZAP70): 11%
inhibition at 1 µM (IKBKE (IKK epsilon)): 8%
inhibition at 10 µM (IKBKE (IKK epsilon)): 6%
inhibition at 1 µM (RPS6KA6 (RSK4)): 2%
inhibition at 10 µM (RPS6KA6 (RSK4)): 4%
inhibition at 1 µM (FYN): 4%
inhibition at 10 µM (FYN): 5%
